US9914760B2, “Methods of identifying, isolating and using odorant and aroma receptors” (Firmenich SA, priority 2013, dated 2018)

Key:
Experiment in all cases: cell-based calcium-flux assay, HEK293T with Gα15
[1] = biological target: T1, OR52N2 (Homo sapiens, UniProt Q8NGI0); settings: increasing concentrations; FIG. 6A, B
T1 construct: expressed in transfected cells
T1 sequence (Q8NGI0 1-321): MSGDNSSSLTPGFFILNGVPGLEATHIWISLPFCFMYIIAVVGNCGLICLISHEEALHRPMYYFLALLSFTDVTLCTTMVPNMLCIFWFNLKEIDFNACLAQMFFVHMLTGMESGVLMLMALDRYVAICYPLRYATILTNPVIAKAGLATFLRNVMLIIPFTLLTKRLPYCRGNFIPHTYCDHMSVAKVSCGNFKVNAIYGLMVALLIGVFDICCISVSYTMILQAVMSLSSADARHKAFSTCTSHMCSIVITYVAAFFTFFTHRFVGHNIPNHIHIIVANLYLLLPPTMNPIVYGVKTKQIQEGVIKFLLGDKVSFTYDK
From the text: (§1) The activity of candidate human indole and skatole malodors receptors OR52N2 (SEQ ID NO: 11 and SEQ ID NO: 12), OR11G2 (SEQ ID NO: 13 and SEQ ID NO: 14, OR5AC2 (SEQ ID NO: 75 and SEQ ID NO: 76), OR4C15 (SEQ ID NO: 79 and SEQ ID NO: 80), OR8S1 (SEQ ID NO: 83 and SEQ ID NO: 84), OR11H6 (SEQ ID NO: 15 and SEQ ID NO: 16) and OR11H4 (SEQ ID NO: 49 and SEQ ID NO: 50) and candidate mouse indole and skatole malodors receptors Olfr665 (SEQ ID NO: 9 and SEQ ID NO 10) and Olfr740 (SEQ ID NO: 1 and SEQ ID NO 2) were confirmed in cell-based calcium-flux assays (FIGS. 6A to 6J). Cells stably co-expressing Rho-tagged human OR52N2 (FIG. 6A, B) or OR11G2 (FIG. 6C) and Gα15 (SEQ ID NO: 25) were exposed to increasing concentrations of skatole or indole. FIG. 6B is a repeat experiment showing similar activity of OR52N2 with indole and skatole. Odorant-induced OR52N2 or OR11G2 activity was detected by measuring the maximum Calcium 5 dye (Molecular Devices) fluorescence change following odorant exposure. Activity is defined as the baseline corrected Relative Fluorescent Units (RFU) ratios normalized to the highest RFU in the experiment in FIG. 6A. […] A cell line lacking a receptor, for example hOR52N2, was used as a control for non-specific activity at high concentrations (‘Indole control’ and ‘Skatole control’). The human receptor OR52N2 (SEQ ID NO: 11 and SEQ ID NO: 12) was identified because of its sequence similarity to mouse Olfr665 (SEQ ID NO: 10), an indole/skatole receptor isolated from olfactory neurons responding to both indole and skatole. The human receptor OR11G2 (SEQ ID NO: 13 and SEQ ID NO: 14) was identified because of its sequence similarity to mouse Olfr740 (SEQ ID NO: 2), an indole/skatole receptor isolated from olfactory neurons responding to both indole and skatole. The receptors were modified with the Rho sequence and stably expressed in HEK 293T cells. Further examples show indole and skatole dose-response curves for human receptors OR5AC2, OR4C15, OR8S1, OR11H6, OR11H4 and mouse receptors Olfr665 and Olfr740 (FIG. 6D-J). The human receptor OR5AC2 (SEQ ID NO: 75 and SEQ ID NO: 76) was identified because of its sequence similarity to mouse Olfr207 (SEQ ID NO: 78), a receptor isolated from olfactory neurons responding to both indole and skatole. The human receptor OR4C15 (SEQ ID NO: 79 and SEQ ID NO: 80) was identified because of its sequence similarity to mouse Olfr211 (SEQ ID NO: 82), a receptor isolated from olfactory neurons responding to both indole and skatole. The human receptor OR8S1 (SEQ ID NO: 83 and SEQ ID NO: 84) was identified because of its sequence similarity to mouse Olfr257 (SEQ ID NO: 86), a receptor isolated from olfactory neurons responding to both indole and skatole. The human receptor OR11H6 (SEQ ID NO: 15 and SEQ ID NO: 16) was identified because of its sequence similarity to mouse Olfr745 (SEQ ID NO: 8), a receptor isolated from olfactory neurons responding to both indole and skatole. The human receptor OR11H4 (SEQ ID NO: 49 and SEQ ID NO: 50) was identified because of its sequence similarity to mouse Olfr746 (SEQ ID NO: 38), a receptor isolated from olfactory neurons responding to both indole and skatole. The mouse receptor Olfr665 (SEQ ID NO: 9 and SEQ ID NO: 10) was identified directly from NGS data from isolated olfactory neurons responding to both indole and skatole. The mouse receptor Olfr740 (SEQ ID NO: 1 and SEQ ID NO: 2) was identified directly from NGS data from isolated olfactory neurons responding to both indole and skatole. Co-expression of the human G alpha subunit Gα15 activates the Gq transduction pathway that leads to an internal Ca2+ increase upon binding to the appropriate ligand.

[2] = biological target: T2, OR8S1 (Homo sapiens, UniProt Q8NH09); settings: dose-response curves FIG. 6D-J
T2 construct: expressed in transfected cells
T2 sequence (Q8NH09 1-359): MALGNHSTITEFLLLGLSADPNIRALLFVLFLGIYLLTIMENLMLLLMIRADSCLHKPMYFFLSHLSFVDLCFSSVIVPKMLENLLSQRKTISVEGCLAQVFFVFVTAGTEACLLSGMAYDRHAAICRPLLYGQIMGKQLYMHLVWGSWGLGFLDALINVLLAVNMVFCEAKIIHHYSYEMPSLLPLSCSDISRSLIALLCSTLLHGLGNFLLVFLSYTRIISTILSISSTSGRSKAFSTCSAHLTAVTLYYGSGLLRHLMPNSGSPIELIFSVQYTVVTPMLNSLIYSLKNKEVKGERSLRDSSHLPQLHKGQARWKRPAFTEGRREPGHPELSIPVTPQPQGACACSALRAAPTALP
From the text: as §1

[3] = biological target: T3, OR11H4 (Homo sapiens, UniProt Q8NGC9); settings: dose-response curves FIG. 6D-J
T3 construct: expressed in transfected cells
T3 sequence (Q8NGC9 1-324): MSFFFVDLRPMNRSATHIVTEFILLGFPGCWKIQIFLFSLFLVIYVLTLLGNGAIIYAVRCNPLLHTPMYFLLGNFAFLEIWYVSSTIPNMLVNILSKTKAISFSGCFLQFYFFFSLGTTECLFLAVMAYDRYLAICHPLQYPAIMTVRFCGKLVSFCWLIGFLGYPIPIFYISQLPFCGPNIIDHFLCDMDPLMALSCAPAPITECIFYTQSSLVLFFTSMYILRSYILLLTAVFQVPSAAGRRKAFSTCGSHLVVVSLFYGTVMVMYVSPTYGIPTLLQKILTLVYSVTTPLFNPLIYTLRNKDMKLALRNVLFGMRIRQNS
From the text: as §1

[4] = biological target: T4, OR4C15 (Homo sapiens, UniProt Q8NGM1); settings: dose-response curves FIG. 6D-J
T4 construct: expressed in transfected cells
T4 sequence (Q8NGM1 with tags, fused parts or gaps): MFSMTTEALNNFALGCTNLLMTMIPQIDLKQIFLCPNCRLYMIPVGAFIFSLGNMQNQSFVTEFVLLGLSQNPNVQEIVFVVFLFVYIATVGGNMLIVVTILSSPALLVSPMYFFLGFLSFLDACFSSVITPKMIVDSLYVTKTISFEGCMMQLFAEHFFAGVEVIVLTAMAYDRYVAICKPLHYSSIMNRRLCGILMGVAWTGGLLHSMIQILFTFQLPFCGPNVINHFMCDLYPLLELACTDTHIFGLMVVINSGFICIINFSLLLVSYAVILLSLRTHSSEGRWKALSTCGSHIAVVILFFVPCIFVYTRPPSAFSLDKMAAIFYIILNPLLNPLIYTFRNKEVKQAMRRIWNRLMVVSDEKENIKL
From the text: as §1

Cc1c[nH]c2ccccc12 [skatole, 3-methyl indole]
receptor activity (Calcium 5 dye fluorescence change) [1]: dose-dependent increase of receptor activity
receptor response in vitro [2]: responded
receptor response in vitro [3]: responded
receptor response in vitro [4]: responded

c1ccc2[nH]ccc2c1 [indole]
receptor activity (Calcium 5 dye fluorescence change) [1]: dose-dependent increase of receptor activity
receptor response in vitro [2]: responded
receptor response in vitro [3]: responded
receptor response in vitro [4]: responded
